Drawing on patent US11278534B2, “Enantiomers of substituted thiazoles as antiviral compounds” (Innovative Molecules GmbH, priority 2017, dated 2022), this text covers IC50 and carbonic anhydrase inhibition for 10 compounds.

Structures are written as SMILES. Where two headings read alike, the source gives them in different places.

One assay has as its system HSV-2. The experiment in a line: activity selectivity assay, HSV-2 infected Vero cells. It counts as cell-based. On the procedure: (§1) HSV (HSV-1 Walki, HSV-1F, HSV-2 MS, HSV clinical isolates and HSV resistant strains) was cultivated on Vero cells (ATCC CCL-81) under the following conditions: The cells were grown in M199 medium (5% foetal calf serum, 2 mM glutamine, 100 IU/mL penicillin, 100 μg/mL streptomycin) in cell culture bottles at 37° C. and 5% CO2. The cells were splitted twice per week (1:4). For the infection, the medium was removed, the cells were washed with Hank's solution, detached using 0.05% trypsin, 0.02% EDTA and incubacted at a density of 4×10^5 cells/mL under the above-mentioned conditions for 24 h. The medium was removed and the virus solution was added at an m.o.i of <0.05 in a volume of 2 mL per 175 cm^2 surface. The infected cells were incubated at 37° C., 5% CO2 for 1 h and then the medium was made up to a volume of 50 mL per 175 cm^2 bottle. […] The virus was released by freezing (−80° C.) and thwawing (37° C.) the infected cultures twice. Cell debris was removed by centrifugation (300 g, 10 min, 4° C.) and the supernatant was frozen in aliquots at −80° C.
(§2) The virus titre was determined using a plaque assay. To this end, Vero cells were seeded in 24-well plates at a density of 4×10^5 cells per well and, after 24 h of incubation (37° C., 5% CO2) infected with 100 μL of inoculum (dilutions (10^−2 to 10^−12) of the virus stock). 1 h after the infection, the medium was removed and the cells were covered with 1 mL of overlay medium (0.5% methylcellulose, 0.22% sodium bicarbonate, 2 mM glutamine, 100 IU/mL penicillin, 100 μg/mL streptomycin, 5% foetal calf serum in MEM-Eagle medium with Earl's salt) and incubated for 3 d in a cell incubator at (37° C., 5% CO2). The cells were then fixated using 4% formaline for 1 h, washed with water, stained with Giemsa for 30 min and then washed and dried. Using a plaque viewer, the virus titre was determined.
(§3) The antiviral action was determined using a patented (DE10235967 and WO2004/015416) and subsequently published activity selectivity assay (G. Kleymann et al. J. Biomol. Screen. 2004; 9, 578) in 96- or 384-well mictrotitre plates using various cell lines of neuronal, lymphoid and epithelial origin, such as, for example, Vero (african green monkey kidney cells), MEF (murine embryonal fibroblasts), HELF (human embryonal fibroblasts), NT2 (human neuronal cell line) or Jurkat (human lymphoid T-cell line). The relevant experimental details of the above mentioned patent and publication to evaluate the antiviral activity of the invention (disclosed compounds) are described below.
(§4) The effect of the substances on the spreading of the cytopathogenic effect was determined in comparision to the reference compound acyclovir-sodium (Zovirax™), a clinically approved anti-herpes chemotherapeutic.
(§5) The compounds (50 mM stock solution dissolved in DMSO) are examined on microtitre plates (for example 96-well flat bottom cell culture plates) at a final concentration of 250 to 0.5 μM or, in case of potent antiviral compounds, 250 to 0.5 nM in 2 to 4 replications (4 to 2 substances per plate). Also examined are toxic and cytostatic effects or precipitation of the compounds. […]

The test system of the next assay is HSV-1 ACV resistant. The experiment in a line: activity selectivity assay, HSV-1 ACV resistant. The assay is classed as cell-based. Here is the method:
as §1, §2, §3, §4, §5

A further assay relates to HSV-1. The experiment in a line: activity selectivity assay, HSV-1 infected Vero cells. It counts as cell-based. Here is the method: as §1, §2, §3, §4, §5
For the next assay, the target named is Human Carboanhydrase II (Homo sapiens, UniProt P00918). The experiment in a line: carbonic anhydrase activity assay (pH indicator method). It counts as biochemical. The note with it: result in words.

The term IC50 denotes the concentration needed to halve the response being measured. For the compound `Cc1nc(N(C)C(=O)Cc2ccc(-c3cc(F)ccc3F)cc2)sc1[S@](=N)(=O)C1CC1` (single isomer, unassigned) [Example 7a(+), (+)-N-(5-(Cyclopropanesulfonimidoyl)-4-methylthiazol-2-yl)-2-(2′,5′-difluoro-[1,1′-biphenyl]-4-yl)-N-methylacetamide], the half-inhibitory concentration (IC50) in the assay with HSV-2 (Human alphaherpesvirus 2) fell in the range of 0.5 to 2 µM; in the assay on HSV-1 ACV resistant (Human alphaherpesvirus 1), 0.25 to 0.75 µM; with HSV-1 (Human alphaherpesvirus 1), 0.25 to 0.75 µM.

On to `Cc1nc(N(C)C(=O)Cc2ccc(-c3cc(F)ccc3F)cc2)sc1[S@@](=N)(=O)C1CC1` (single isomer, unassigned) [Example 7a(−), (−)-N-(5-(Cyclopropanesulfonimidoyl)-4-methylthiazol-2-yl)-2-(2′,5′-difluoro-[1,1′-biphenyl]-4-yl)-N-methylacetamide], for which the values for the IC50 in the assay with HSV-2 (Human alphaherpesvirus 2), in the assay on HSV-1 ACV resistant (Human alphaherpesvirus 1) and in the assay with HSV-1 (Human alphaherpesvirus 1) were 0.03 to 0.3 µM, 0.02 to 0.05 µM and 0.02 to 0.05 µM, respectively.

As to `Cc1nc(N(C)C(=O)Cc2ccc(-c3ccccn3)cc2)sc1[S@](=N)(=O)C1CC1` (single isomer, unassigned) [Example 7b(+), (+)-N-(5-(Cyclopropanesulfonimidoyl)-4-methylthiazol-2-yl)-N-methyl-2-(4-(pyridin-2-yl)phenyl)acetamide], the IC50 was in the range of 2 to 8 µM with HSV-2 (Human alphaherpesvirus 2), 0.5 to 1.5 µM in the assay with HSV-1 ACV resistant (Human alphaherpesvirus 1) and 0.5 to 1.5 µM with HSV-1 (Human alphaherpesvirus 1).

Consider `Cc1nc(N(C)C(=O)Cc2ccc(-c3ccccn3)cc2)sc1[S@@](=N)(=O)C1CC1` (single isomer, unassigned) [Example 7b(−), (−)-N-(5-(Cyclopropanesulfonimidoyl)-4-methylthiazol-2-yl)-N-methyl-2-(4-(pyridin-2-yl)phenyl)acetamide], for which the IC50 with HSV-2 (Human alphaherpesvirus 2) was in the range of 0.2 to 0.75 µM; with HSV-1 ACV resistant (Human alphaherpesvirus 1), 0.075 to 0.25 µM; in the assay on HSV-1 (Human alphaherpesvirus 1) it was 0.075 to 0.25 µM.

Take `CN(C(=O)Cc1ccc(-c2cc(F)ccc2F)cc1)c1nc(CO)c([S@@](C)(=N)=O)s1` (single isomer, unassigned) [Example 10a, 2-(2′,5′-Difluoro-[1,1′-biphenyl]-4-yl)-N-(4-(hydroxymethyl)-5-(S-methylsulfonimidoyl)thiazol-2-yl)-N-methylacetamide]: the IC50 with HSV-2 (Human alphaherpesvirus 2) lay in the range of 1 to 5 µM; in the assay on HSV-1 ACV resistant (Human alphaherpesvirus 1), 0.05 to 0.25 µM; in the assay on HSV-1 (Human alphaherpesvirus 1), 0.05 to 0.25 µM.

For the compound `CN(C(=O)Cc1ccc(-c2cc(F)ccc2F)cc1)c1nc(CO)c([S@](C)(=N)=O)s1` (single isomer, unassigned) [Example 10b, 2-(2′,5′-Difluoro-[1,1′-biphenyl]-4-yl)-N-(4-(hydroxymethyl)-5-(S-methylsulfonimidoyl)thiazol-2-yl)-N-methylacetamide], the IC50 in the assay with HSV-2 (Human alphaherpesvirus 2) was 5 to 25 µM; in the assay with HSV-1 ACV resistant (Human alphaherpesvirus 1) it was 1 to 5 µM; with HSV-1 (Human alphaherpesvirus 1), 1 to 5 µM.

Turning to `Cc1nc(N(C)C(=O)Cc2ccc(-c3ccccn3)cc2)sc1[S@](C)(=N)=O` (stereo in doubt) [Example 7c, N-Methyl-N-[4-methyl-5-(methylsulfonimidoyl)thiazol-2-yl]-2-[4-(2-pyridyl)phenyl]acetamide], the carbonic anhydrase inhibition result at Human Carboanhydrase II is recorded as “no or significantly reduced carbonic anhydrase inhibition”.

For `Nc1nc2c(ncn2COCCO)c(=O)[nH]1` [Acyclovir, reference compound], the IC50 is 0.5 to 3 µM in the assay on HSV-2, greater than 25 µM with HSV-1 ACV resistant (HSV-1 ACV resistant) and 0.5 to 3 µM in the assay on HSV-1.

For the compound `Cc1nc(N(C)C(=O)Cc2ccc(-c3cc(F)ccc3F)cc2)sc1S(=N)(=O)C1CC1` (stereo not shown) [Example 7a, N-[5-(Cyclopropylsulfonimidoyl)-4-methyl-thiazol-2-yl]-2-[4-(2,5-difluorophenyl)phenyl]-N-methyl-acetamide], the values for the 50% inhibitory concentration (IC50) in the assay with HSV-2 (Human alphaherpesvirus 2), in the assay with HSV-1 ACV resistant (Human alphaherpesvirus 1) and in the assay on HSV-1 (Human alphaherpesvirus 1) were 0.05 to 0.5 µM, 0.03 to 0.1 µM and 0.03 to 0.1 µM, respectively.

In the case of `CC(=O)N=[S@](C)(=O)c1sc(N(C)C(=O)Cc2ccc(-c3cc(F)ccc3F)cc2)nc1C` [Example 8, (R)-N-(5-(N-Acetyl-S-methylsulfonimidoyl)-4-methylthiazol-2-yl)-2-(2′,5′-difluoro-[1,1′-biphenyl]-4-yl)-N-methylacetamide], the values for the IC50 in the assay on HSV-2 (Human alphaherpesvirus 2), in the assay on HSV-1 ACV resistant (Human alphaherpesvirus 1) and in the assay on HSV-1 (Human alphaherpesvirus 1) were 50 to 250 µM, 10 to 50 µM and 10 to 50 µM, respectively.
